For one experiment, the system named is H22. Put plainly: Antimetastatic activity in mouse H22 cells xenografted in mouse assessed as reduction of metastasized nodes at 50 mg/kg, po administered 6 days per week for 2 weeks measured after 1 day last post dose. Further details: scale not given: the % may be the effect or the level left. In kind it is functional.
For the next experiment, the system named is HL-60. Put plainly: Cytotoxicity against human HL60 cells after 48 hrs by MTT assay. The experiment is classed as functional, cell-based. The following applies: HL-60, 48 h. For orientation: Tetrazolium assays rely on reduction of a dye to a coloured formazan, in cell work by metabolically active cells.
Another experiment has as its target T1, Aminopeptidase N (Sus scrofa, UniProt P15145).
T1 sequence (P15145 whole entry): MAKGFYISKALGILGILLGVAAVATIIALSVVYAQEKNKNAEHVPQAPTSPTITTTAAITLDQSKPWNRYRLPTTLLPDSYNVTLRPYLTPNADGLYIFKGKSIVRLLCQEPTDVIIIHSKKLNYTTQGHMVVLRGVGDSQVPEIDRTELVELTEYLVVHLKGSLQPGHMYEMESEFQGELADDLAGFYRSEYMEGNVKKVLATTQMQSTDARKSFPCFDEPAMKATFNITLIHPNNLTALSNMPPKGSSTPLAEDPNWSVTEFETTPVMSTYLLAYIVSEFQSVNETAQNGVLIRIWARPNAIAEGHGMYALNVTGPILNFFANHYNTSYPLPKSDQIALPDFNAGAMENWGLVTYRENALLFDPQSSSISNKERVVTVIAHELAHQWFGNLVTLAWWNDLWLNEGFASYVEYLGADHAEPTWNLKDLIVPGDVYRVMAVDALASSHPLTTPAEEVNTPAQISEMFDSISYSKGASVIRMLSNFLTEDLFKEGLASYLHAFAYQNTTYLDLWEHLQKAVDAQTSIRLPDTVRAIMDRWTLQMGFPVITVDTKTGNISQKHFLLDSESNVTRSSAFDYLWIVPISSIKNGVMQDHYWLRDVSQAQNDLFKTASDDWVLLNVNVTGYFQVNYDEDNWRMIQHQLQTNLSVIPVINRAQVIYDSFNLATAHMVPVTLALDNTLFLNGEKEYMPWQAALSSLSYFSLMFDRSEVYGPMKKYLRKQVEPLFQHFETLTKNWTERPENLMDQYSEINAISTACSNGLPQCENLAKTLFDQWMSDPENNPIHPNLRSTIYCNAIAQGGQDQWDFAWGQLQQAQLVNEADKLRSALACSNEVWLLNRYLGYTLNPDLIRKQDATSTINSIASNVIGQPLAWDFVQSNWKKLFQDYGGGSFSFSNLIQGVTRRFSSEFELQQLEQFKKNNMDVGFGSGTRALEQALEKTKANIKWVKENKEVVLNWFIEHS
Kind of experiment: Inhibition of pig kidney microsomes aminopeptidase N preincubated for 30 mins.

As for `COc1cc(C(=O)N[C@H]2CCC(=O)N(CC(=O)NO)C2=O)cc(OC)c1OC`, in the experiment with H22, the Activity was 81.56%. Further, in the experiment on HL-60, half-maximal inhibition (IC50) was put at 136 µM.
`COC(=O)[C@H](CCCCNC(=O)OCc1ccccc1)NC(=O)CN1C(=O)CC[C@H](NC(=O)c2cc(OC)c(OC)c(OC)c2)C1=O` returned an IC50 against Aminopeptidase N of 38.1 µM.
For `COC(=O)[C@H](CCCNC(=N)N[N+](=O)[O-])NC(=O)CN1C(=O)CC[C@H](NC(=O)c2cc(OC)c(OC)c(OC)c2)C1=O`, the IC50 in the experiment on HL-60 was 86 µM; against Aminopeptidase N, 42 µM.
As for `O=C(CN1C(=O)CC[C@H](NC(=O)c2cc(O)c(O)c(O)c2)C1=O)N[C@@H](Cc1ccccc1)C(=O)O`, at Aminopeptidase N, the IC50 stood at 10.3 µM.
Same read-out and setting: the result for `COC(=O)[C@@H](CS)NC(=O)CN1C(=O)CC[C@H](NC(=O)c2cc(OC)c(OC)c(OC)c2)C1=O` reads 50.3 µM; that for `O=C(CN1C(=O)CC[C@H](NC(=O)c2cc(O)c(O)c(O)c2)C1=O)NO`, 4.3 µM.
The same measure, in the same setting: the result for `CC(C)C[C@H](NC(=O)CN1C(=O)CC[C@H](NC(=O)c2cc(O)c(O)c(O)c2)C1=O)C(=O)O` reads 55.4 µM.
Still for that read-out and setting: the value for `COC(=O)[C@@H](CCl)NC(=O)CN1C(=O)CC[C@H](NC(=O)c2cc(OC)c(OC)c(OC)c2)C1=O` was 50 µM.
Compound `O=C(O)CN1C(=O)CC[C@H](NC(=O)c2cc(O)c(O)c(O)c2)C1=O` returned an IC50 against Aminopeptidase N of 47.3 µM.
Same read-out and setting: the value for `O=C(O)CNC(=O)CN1C(=O)CC[C@H](NC(=O)c2cc(O)c(O)c(O)c2)C1=O` was 63.2 µM; that for `COC(=O)CC(NC(=O)CN1C(=O)CC[C@H](NC(=O)c2cc(OC)c(OC)c(OC)c2)C1=O)C(=O)OC` (single isomer, unassigned) was 21.7 µM.
Turning to `CC(C)C[C@H](NC(=O)[C@@H](O)[C@H](N)Cc1ccccc1)C(=O)O` [UBENIMEX], the Activity with H22 worked out at 60.25%. Besides, inhibition with HL-60 was half-maximal at 245 µM (IC50).

The IC50 is the concentration that inhibits the measured activity by half.

(Values after ChEMBL document CHEMBL1154789, “Novel cyclic-imide peptidomimetics as aminopeptidase N inhibitors. Design, chemistry and activity evaluation. Part I” (Eur J Med Chem, 2009).)
